Test system: cortical neurons in hAPP-transfected rat brain slices
Test: Rat brain slice AD model (hAPP-induced neurodegeneration)
Type: cell-based
Settings: rat brain slices transfected with EYFP and hAPP, three concentrations, 72 hrs (FIG. 8)
Description: A rodent brain slice model for AD has been developed where the expression of human APP by particle-mediated gene transfer (“biolistics”) leads to typical signs of neuronal dystrophy, and ultimately the degeneration and clearance of the cell body with a few days. Brain slice preparations offer a powerful experimental system because they preserve the three-dimensional tissue architecture and local environment of neurons and glia far better than dissociated cell culture. As such, drug lead candidates that show neuroprotective activity in brain-tissue based disease models have a much increased ability to predict efficacy in vivo and ultimately in the clinic.
Preparation of Brain Slice Explants. Cd Sprague-Dawley Rat Pups are Used at Postnatal day 10. Brains are cut into 250 μm coronal slices on a vibratome in chilled medium baths. Approximately 6 such slices can be cut from each rat brain; each are divided into “hemi-coronal” slices which are placed in individual 6-well transwell inserts. […]
Assessment of cortical neuron health. […] Representative images are captured using a digital camera on a fluorescence microscope. After 3 days, cortical neurons are scored. […] Statistical significance of the neuronal counts in compound-treated slices is evaluated by ANOVA analysis, followed by post hoc Dunnett's analysis at the p≦0.05 confidence level. […]

O=C(/C=C(O)/C=C/c1ccc(O)cc1)/C=C/c1ccc(O)cc1 [Compound 1, 5-Hydroxy-1,7-bis-(4-hydroxy-phenyl)-hepta-1,4,6-trien-3-one, reference compound]
Neuroprotective effect against hAPP-induced neurodegeneration: dose-dependent trend for AD related neuroprotection
